How the values were obtained:
wheat [1] = assay: Test C postemergence; format: in vivo, Triticum aestivum; details: 10 days
Procedure, shortened: (§1)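 Test material, in non-phytotoxic solvent with surfactant, was sprayed on the soil directly after seeding (preemergence) or on young plants of 2–10 cm with one to two leaves (postemergence). Greenhouse, 10 days; 0–100 visual control scale.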

oat, wild [2] = assay: Test C postemergence; format: in vivo, Avena fatua; details: 10 days
Procedure, shortened: as §1

barnyardgrass [3] = assay: Test C preemergence; format: in vivo, Echinochloa crusgalli; details: 0 to 100 scale (0 no effect, 100 complete control); for Plant response rating, Barnyardgrass: Preemergence, visual rating after 10 days
Procedure, shortened: as §1

ragweed [4] = assay: Test C preemergence; format: in vivo, Ambrosia artemisiifolia; details: 0 to 100 scale (0 no effect, 100 complete control); for Plant response rating, Ragweed: Preemergence, visual rating after 10 days
Procedure, shortened: as §1

ryegrass, Italian [5] = assay: Test C postemergence; format: in vivo, Lolium multiflorum; details: 10 days
Procedure, shortened: as §1

ryegrass, Italian [6] = assay: Test C preemergence; format: in vivo, Lolium multiflorum; details: 0 to 100 scale (0 no effect, 100 complete control); for Plant response rating, Ryegrass, Italian: Preemergence, visual rating after 10 days
Procedure, shortened: as §1

oat, wild [7] = assay: Test C preemergence; format: in vivo, Avena fatua; details: 0 to 100 scale (0 no effect, 100 complete control)
Procedure, shortened: as §1

sedge, umbrella = assay: Test D flooded paddy test; format: in vivo, Cyperus difformis; details: 250 g ai/ha, applied to paddy water, visual rating after 13 to 14 days, scale 0 to 100 (0 no effect, 100 complete control)
Method: (§2) Plant species in the flooded paddy test selected from barnyardgrass (Echinochloa crus-galli), ducksalad (Heteranthera limosa), rice (Oryza sativa), and sedge, umbrella (small-flower umbrella sedge, Cyperus difformis) were grown to the 2-leaf stage for testing. At time of treatment, test pots were flooded to 3 cm above the soil surface, treated by application of test compounds directly to the paddy water, and then maintained at that water depth for the duration of the test. Treated plants and controls were maintained in a greenhouse for 13 to 14 days, after which time all species were compared to controls and visually evaluated. Plant response ratings, summarized in Table D, are based on a scale of 0 to 100 where 0 is no effect and 100 is complete control. A dash (-) response means no test result.

ducksalad = assay: Test D flooded paddy test; format: in vivo, Heteranthera limosa; details: 250 g ai/ha, applied to paddy water, visual rating after 13 to 14 days, scale 0 to 100 (0 no effect, 100 complete control)
Method: as §2

blackgrass [8] = assay: Test C preemergence; format: in vivo, Alopecurus myosuroides; details: 0 to 100 scale (0 no effect, 100 complete control); for Plant response rating, Blackgrass: Preemergence, visual rating after 10 days
Procedure, shortened: as §1

rice = assay: Test D flooded paddy test; format: in vivo, Oryza sativa; details: 250 g ai/ha, applied to paddy water, visual rating after 13 to 14 days, scale 0 to 100 (0 no effect, 100 complete control)
Method: as §2

horseweed = assay: Test C postemergence; format: in vivo, Erigeron canadensis; details: 10 days
Procedure, shortened: as §1

green foxtail [9] = assay: Test C preemergence; format: in vivo, Setaria viridis; details: 0 to 100 scale (0 no effect, 100 complete control); for Plant response rating, Foxtail, Green: Preemergence, visual rating after 10 days
Procedure, shortened: as §1

galium = assay: Test C postemergence; format: in vivo, Galium aparine; details: 10 days
Procedure, shortened: as §1

corn [10] = assay: Test C postemergence; format: in vivo, Zea mays; details: 10 days
Procedure, shortened: as §1

barnyardgrass [11] = assay: Test D flooded paddy test; format: in vivo, Echinochloa crus-galli; details: 250 g ai/ha, applied to paddy water, visual rating after 13 to 14 days, scale 0 to 100 (0 no effect, 100 complete control)
Method: as §2

corn [12] = assay: Test C preemergence; format: in vivo, Zea mays; details: 0 to 100 scale (0 no effect, 100 complete control)
Procedure, shortened: as §1

soybean [13] = assay: Test C postemergence; format: in vivo, Glycine max; details: 10 days
Procedure, shortened: as §1

blackgrass [14] = assay: Test C postemergence; format: in vivo, Alopecurus myosuroides; details: 10 days
Procedure, shortened: as §1

kochia [15] = assay: Test C postemergence; format: in vivo, Bassia scoparia; details: 10 days
Procedure, shortened: as §1

pigweed, palmer [16] = assay: Test C preemergence; format: in vivo, Amaranthus palmeri; details: 0 to 100 scale (0 no effect, 100 complete control); for Plant response rating, Pigweed, Palmer: Preemergence, visual rating after 10 days
Procedure, shortened: as §1

wheat [17] = assay: Test C preemergence; format: in vivo, Triticum aestivum; details: 0 to 100 scale (0 no effect, 100 complete control)
Procedure, shortened: as §1

pigweed, palmer [18] = assay: Test C postemergence; format: in vivo, Amaranthus palmeri; details: 10 days
Procedure, shortened: as §1

barnyardgrass [19] = assay: Test C postemergence; format: in vivo, Echinochloa crusgalli
Procedure, shortened: as §1

ragweed [20] = assay: Test C postemergence; format: in vivo, Ambrosia artemisiifolia; details: 10 days
Procedure, shortened: as §1

soybean [21] = assay: Test C preemergence; format: in vivo, Glycine max; details: 0 to 100 scale (0 no effect, 100 complete control)
Procedure, shortened: as §1

kochia [22] = assay: Test C preemergence; format: in vivo, Bassia scoparia; details: 0 to 100 scale (0 no effect, 100 complete control); for Plant response rating, Kochia: Preemergence, visual rating after 10 days
Procedure, shortened: as §1

green foxtail [23] = assay: Test C postemergence; format: in vivo, Setaria viridis; details: Postemergence, 1000 g ai/ha, 10 days, visual 0 to 100 scale (0 no effect, 100 complete control)
Procedure, shortened: as §1

[24] = 125 g ai/ha, postemergence, 0 to 100 scale, 0 no effect, 100 complete control
[25] = Postemergence, 500 g ai/ha, visual 0 to 100 scale (0 no effect, 100 complete control)
[26] = Test C, preemergence, 125 g ai/ha
[27] = Preemergence, 500 g ai/ha, visual rating after 10 days
[28] = Postemergence, 1000 g ai/ha, visual 0 to 100 scale (0 no effect, 100 complete control)

COc1ccc(-n2cnc(C(C)(C)O)n2)cc1C(=O)N1C[C@H](C)Oc2c(Cl)cccc21 [Compound 254]
80: Plant response rating, Wheat (wheat [1]; [25]) | Plant response rating, Oat, Wild (oat, wild [2]; [24]) | Ragweed plant response rating (ragweed [4]; [26]) | Plant response rating, Ryegrass, Italian (ryegrass, Italian [5]; [25]) | Plant response rating, Blackgrass (blackgrass [8]; 500 g ai/ha) | Plant response rating, Corn (corn [10]; [24]) | Plant response rating, Blackgrass (blackgrass [14]; [24]) | Plant response rating, Kochia (kochia [15]; [24]) | Plant response rating, Barnyardgrass (barnyardgrass [19]; Postemergence, 500 g ai/ha, 10 days, visual 0 to 100 scale (0 no effect, 100 complete control))
30: Plant response rating, Horseweed (horseweed; [24])
98: Plant response rating, Sedge, Umbrella (Flood) (sedge, umbrella) | Plant response rating, Ducksalad (Flood) (ducksalad)
100: Plant response rating, Barnyardgrass (barnyardgrass [3]; 500 g ai/ha) | Plant response rating, Foxtail, Green (green foxtail [9]; 500 g ai/ha) | Foxtail, Green plant response rating (green foxtail [9]; [26]) | Plant response rating, Galium (galium; [24]) | Plant response rating, Galium (galium; [25]) | Plant response rating, Soybean (soybean [13]; [24]) | Plant response rating, Soybean (soybean [13]; [25]) | Plant response rating, Pigweed, Palmer (pigweed, palmer [16]; 500 g ai/ha) | Pigweed, Palmer plant response rating (pigweed, palmer [16]; [26]) | Plant response rating, Pigweed, Palmer (pigweed, palmer [18]; [25]) | Plant response rating, Ragweed (ragweed [20]; [25]) | Plant response rating, Soybean (soybean [21]; [27]) | Soybean plant response rating (soybean [21]; [26])
20: Plant response rating, Rice (Flood) (rice) | Plant response rating, Horseweed (horseweed; [25])
40: Blackgrass plant response rating (blackgrass [8]; [26])
25: Plant response rating, Barnyardgrass (Flood) (barnyardgrass [11])
70: Barnyardgrass plant response rating (barnyardgrass [3]; [26]) | Plant response rating, Ryegrass, Italian (ryegrass, Italian [5]; [24]) | Wheat plant response rating (wheat [17]; [26])
50: Plant response rating, Wheat (wheat [1]; [24]) | Plant response rating, Corn (corn [12]; [27]) | Corn plant response rating (corn [12]; [26]) | Plant response rating, Barnyardgrass (barnyardgrass [19]; 125 g ai/ha, postemergence, 10 days, 0 to 100 scale, 0 no effect, 100 complete control)
90: Plant response rating, Oat, Wild (oat, wild [2]; [25]) | Plant response rating, Ragweed (ragweed [4]; 500 g ai/ha) | Plant response rating, Ryegrass, Italian (ryegrass, Italian [6]; 500 g ai/ha) | Ryegrass, Italian plant response rating (ryegrass, Italian [6]; [26]) | Plant response rating, Oat, Wild (oat, wild [7]; [27]) | Oat, Wild plant response rating (oat, wild [7]; [26]) | Plant response rating, Corn (corn [10]; [25]) | Plant response rating, Blackgrass (blackgrass [14]; [25]) | Plant response rating, Kochia (kochia [15]; [25]) | Plant response rating, Wheat (wheat [17]; [27]) | Plant response rating, Pigweed, Palmer (pigweed, palmer [18]; [24]) | Plant response rating, Ragweed (ragweed [20]; [24]) | Plant response rating, Kochia (kochia [22]; 500 g ai/ha) | Kochia plant response rating (kochia [22]; [26])

Cc1cnn(-c2cccc(C(=O)N3C[C@H](C)Oc4c(Cl)cccc43)c2)c1 [Compound 207]
10: Plant response rating, Foxtail, Green (green foxtail [23]) | Plant response rating, Horseweed (horseweed; [28]) | Plant response rating, Galium (galium; [28]) | Plant response rating, Blackgrass (blackgrass [14]; [28]) | Plant response rating, Ragweed (ragweed [20]; [28])
0: Plant response rating, Ragweed (ragweed [4]; 1000 g ai/ha) | Plant response rating, Sedge, Umbrella (Flood) (sedge, umbrella) | Plant response rating, Ducksalad (Flood) (ducksalad) | Plant response rating, Rice (Flood) (rice) | Plant response rating, Barnyardgrass (Flood) (barnyardgrass [11])
90: Plant response rating, Barnyardgrass (barnyardgrass [3]; 1000 g ai/ha) | Plant response rating, Ryegrass, Italian (ryegrass, Italian [6]; 1000 g ai/ha) | Plant response rating, Foxtail, Green (green foxtail [9]; 1000 g ai/ha) | Plant response rating, Pigweed, Palmer (pigweed, palmer [16]; 1000 g ai/ha) | Plant response rating, Pigweed, Palmer (pigweed, palmer [18]; [28])
20: Plant response rating, Blackgrass (blackgrass [8]; 1000 g ai/ha) | Plant response rating, Kochia (kochia [15]; [28])
30: Plant response rating, Barnyardgrass (barnyardgrass [19]; Postemergence, 1000 g ai/ha, 0 to 100 scale, 0 no effect, 100 complete control) | Plant response rating, Kochia (kochia [22]; 1000 g ai/ha)
70: Plant response rating, Ryegrass, Italian (ryegrass, Italian [5]; [28])

— patent US20260262643A1, “HERBICIDAL BENZOXAZINES” (FMC CORPORATION, priority 2022, published 2026)
